One series deals with T1, KIF5B-RET V804M (Homo sapiens, UniProt P07949, V804M).
T1 construct: KIF5B (fusion partner); expressed in transfected cells; host or cells: BaF3; the other entry of the earlier key: KIF5B (P33176, Kinesin-1 heavy chain)
T1 sequence (P07949 713-1063 V804M limits assumed): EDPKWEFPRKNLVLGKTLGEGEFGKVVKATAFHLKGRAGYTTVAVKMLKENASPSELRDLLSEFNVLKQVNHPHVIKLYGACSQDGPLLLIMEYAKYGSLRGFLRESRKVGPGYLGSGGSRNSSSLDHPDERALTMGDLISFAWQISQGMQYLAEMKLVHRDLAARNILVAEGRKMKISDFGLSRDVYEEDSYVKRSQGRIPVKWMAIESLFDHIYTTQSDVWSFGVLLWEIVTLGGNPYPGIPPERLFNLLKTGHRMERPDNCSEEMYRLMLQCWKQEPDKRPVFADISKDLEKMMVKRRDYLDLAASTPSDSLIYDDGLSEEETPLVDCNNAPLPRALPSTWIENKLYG
Nature of the series: Cell viability assay (CellTiter-Glo) in BaF3 cells expressing KIF5B-RET V804M. Format: cell-based. The settings on record: B/KR mutant cell line V804M; read-out: IC50 of RET mutants, V804M. The source says: (§1) KIF5B-RET G810D and G810V mutations were generated by PCR-based mutagenesis with primers containing the desired mutations. […] Drug screening and ICso data of BaF3/KR and mutation cells were from 2 or more experiments performed in 3 technical replicates.
Background: In ATP-based viability assays light output follows the ATP content of the culture.

In the next series the target is T2, KIF5B-RET G810V (Homo sapiens, UniProt P07949, G810V).
T2 construct: KIF5B (fusion partner); expressed in transfected cells; host or cells: BaF3 (lentiviral vector); the other entry of the earlier key: KIF5B (P33176, Kinesin-1 heavy chain)
T2 sequence (P07949 713-1063 G810V limits assumed): T1 sequence (P07949 713-1063 V804M limits assumed) with M92V, G98V
Put plainly: Cell viability assay (CellTiter-Glo) in BaF3 cells expressing KIF5B-RET G810V. The format is cell-based. The note with it: B/KR mutant cell line G810V; read-out: IC50 of RET mutants, G810V.
Excerpt: as §1

The target of another series is T3, KIF5B-RET G810C (Homo sapiens, UniProt P07949, G810C).
T3 construct: KIF5B (fusion partner); expressed in transfected cells; host or cells: BaF3; the other entry of the earlier key: KIF5B (P33176, Kinesin-1 heavy chain)
T3 sequence (P07949 713-1063 G810C limits assumed): T1 sequence (P07949 713-1063 V804M limits assumed) with M92V, G98C
Nature of the series: Cell viability assay (CellTiter-Glo) in BaF3 cells expressing KIF5B-RET G810C. The note with it: B/KR mutant cell line G810C; read-out: IC50 of RET mutants, G810C. Format: cell-based.
Excerpt: as §1

A further series addresses T4, KIF5B-RET G810D (Homo sapiens, UniProt P07949, G810D).
T4 construct: KIF5B (fusion partner); expressed in transfected cells; host or cells: BaF3 (lentiviral vector); the other entry of the earlier key: KIF5B (P33176, Kinesin-1 heavy chain)
T4 sequence (P07949 713-1063 G810D limits assumed): T1 sequence (P07949 713-1063 V804M limits assumed) with M92V, G98D
Nature of the series: Cell viability assay (CellTiter-Glo) in BaF3 cells expressing KIF5B-RET G810D. Format: cell-based. The settings on record: B/KR mutant cell line G810D; read-out: IC50 of RET mutants, G810D.
Excerpt: as §1

The target in another series is T5, KIF5B-RET WT (Homo sapiens, UniProt P07949).
T5 construct: KIF5B (fusion partner); expressed in transfected cells; host or cells: BaF3; the other entry of the earlier key: KIF5B (P33176, Kinesin-1 heavy chain)
T5 sequence (P07949 with tags, fused parts or gaps): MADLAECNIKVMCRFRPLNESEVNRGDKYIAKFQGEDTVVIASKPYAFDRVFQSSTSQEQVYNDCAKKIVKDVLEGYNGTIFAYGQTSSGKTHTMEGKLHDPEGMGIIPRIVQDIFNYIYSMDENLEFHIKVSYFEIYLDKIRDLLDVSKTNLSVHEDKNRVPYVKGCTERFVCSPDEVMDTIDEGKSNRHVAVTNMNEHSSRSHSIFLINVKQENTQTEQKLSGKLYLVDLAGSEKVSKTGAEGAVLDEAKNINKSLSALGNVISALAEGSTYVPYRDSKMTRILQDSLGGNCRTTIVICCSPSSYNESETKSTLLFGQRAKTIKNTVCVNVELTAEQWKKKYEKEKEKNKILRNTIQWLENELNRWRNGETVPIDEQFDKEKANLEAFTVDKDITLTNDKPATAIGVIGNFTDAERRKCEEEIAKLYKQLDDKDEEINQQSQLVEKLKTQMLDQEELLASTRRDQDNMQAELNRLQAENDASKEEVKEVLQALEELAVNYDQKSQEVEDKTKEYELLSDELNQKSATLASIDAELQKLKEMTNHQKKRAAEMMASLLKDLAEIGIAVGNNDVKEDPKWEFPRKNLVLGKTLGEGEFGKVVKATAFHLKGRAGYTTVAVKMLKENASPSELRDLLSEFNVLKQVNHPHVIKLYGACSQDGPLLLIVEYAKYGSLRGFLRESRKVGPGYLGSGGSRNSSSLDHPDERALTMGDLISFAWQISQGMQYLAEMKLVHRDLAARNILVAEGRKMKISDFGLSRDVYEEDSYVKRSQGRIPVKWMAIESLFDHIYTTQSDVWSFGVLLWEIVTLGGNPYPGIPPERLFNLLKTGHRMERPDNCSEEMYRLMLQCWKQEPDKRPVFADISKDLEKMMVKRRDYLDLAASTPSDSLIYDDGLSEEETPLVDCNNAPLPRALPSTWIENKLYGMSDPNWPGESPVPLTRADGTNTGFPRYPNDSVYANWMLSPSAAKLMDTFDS
Nature of the series: Cell viability assay (CellTiter-Glo) in BaF3 cells expressing KIF5B-RET (B/KR), WT. Format: cell-based. The settings on record: B/KR cell line, read-out: IC50 of RET mutants, WT.
Excerpt: as §1

A short description of the next series: Solubility at pH 6.8. The format is physicochemical.
Another series addresses T6, KIF5B-RET G810S (Homo sapiens, UniProt P07949, G810S).
T6 construct: KIF5B (fusion partner); expressed in transfected cells; host or cells: BaF3; the other entry of the earlier key: KIF5B (P33176, Kinesin-1 heavy chain)
T6 sequence (P07949 713-1063 G810S limits assumed): T1 sequence (P07949 713-1063 V804M limits assumed) with M92V, G98S
Nature of the series: Cell viability assay (CellTiter-Glo) in BaF3 cells expressing KIF5B-RET G810S. Format: cell-based. The note with it: B/KR mutant cell line G810S; read-out: IC50 of RET mutants, G810S.
Excerpt: as §1

In a further series the target is hERG (Homo sapiens, UniProt Q12809). Nature of the series: hERG inhibition. Format: biochemical. In general terms: Block of hERG is tested as a sign of cardiac risk.
hERG, sequence (Q12809 whole entry): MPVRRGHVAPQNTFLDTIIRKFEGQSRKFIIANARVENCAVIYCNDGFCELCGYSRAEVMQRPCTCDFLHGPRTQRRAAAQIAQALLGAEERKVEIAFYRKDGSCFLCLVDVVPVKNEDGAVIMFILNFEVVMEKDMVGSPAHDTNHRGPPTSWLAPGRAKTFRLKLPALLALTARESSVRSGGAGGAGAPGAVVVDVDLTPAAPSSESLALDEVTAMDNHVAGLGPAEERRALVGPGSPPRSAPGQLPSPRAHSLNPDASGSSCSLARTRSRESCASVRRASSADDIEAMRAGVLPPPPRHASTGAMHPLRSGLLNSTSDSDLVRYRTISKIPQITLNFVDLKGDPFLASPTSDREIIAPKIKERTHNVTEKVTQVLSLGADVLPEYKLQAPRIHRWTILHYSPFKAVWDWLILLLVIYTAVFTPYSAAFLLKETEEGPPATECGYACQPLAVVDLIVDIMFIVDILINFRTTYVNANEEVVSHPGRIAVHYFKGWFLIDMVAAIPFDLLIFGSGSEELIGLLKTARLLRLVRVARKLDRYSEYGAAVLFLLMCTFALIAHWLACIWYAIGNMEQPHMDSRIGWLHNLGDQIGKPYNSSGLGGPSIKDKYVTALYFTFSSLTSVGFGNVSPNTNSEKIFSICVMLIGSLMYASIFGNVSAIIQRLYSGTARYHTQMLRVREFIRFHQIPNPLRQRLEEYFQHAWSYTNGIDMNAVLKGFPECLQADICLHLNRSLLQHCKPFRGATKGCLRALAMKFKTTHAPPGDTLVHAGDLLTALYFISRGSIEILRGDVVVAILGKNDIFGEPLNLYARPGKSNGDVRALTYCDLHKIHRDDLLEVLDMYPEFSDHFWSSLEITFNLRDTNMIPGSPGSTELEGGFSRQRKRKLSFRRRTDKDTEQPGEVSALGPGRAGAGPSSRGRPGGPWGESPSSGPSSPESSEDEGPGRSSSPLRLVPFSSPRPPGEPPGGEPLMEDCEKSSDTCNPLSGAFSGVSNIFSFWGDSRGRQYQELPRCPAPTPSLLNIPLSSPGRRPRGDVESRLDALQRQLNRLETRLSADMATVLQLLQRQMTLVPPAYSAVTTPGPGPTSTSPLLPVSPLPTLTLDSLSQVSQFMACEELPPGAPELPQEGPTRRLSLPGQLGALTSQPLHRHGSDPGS
A further series has as its target T7, KIF5B-RET G810A (Homo sapiens, UniProt P07949, G810A).
T7 construct: KIF5B (fusion partner); expressed in transfected cells; host or cells: BaF3; the other entry of the earlier key: KIF5B (P33176, Kinesin-1 heavy chain)
T7 sequence (P07949 713-1063 G810A limits assumed): T1 sequence (P07949 713-1063 V804M limits assumed) with M92V, G98A
Put plainly: Cell viability assay (CellTiter-Glo) in BaF3 cells expressing KIF5B-RET G810A. The format is cell-based. The settings on record: B/KR mutant cell line G810A; read-out: IC50 of RET mutants, G810A.
Excerpt: as §1

Series [1] is described as follows: Protein binding (human serum). Format: in vitro ADME.
A further series concerns B/KR(G810C) CDX tumors. Put plainly: In vivo activity on B/KR(G810C) CDX tumors in mice. The note with it: daily oral gavage. The method, then: Mice bearing B/KR(G810C) CDX tumors were treated with the test compounds at the indicated doses by daily oral gavage. Tumor dimensions were measured with a caliper, and tumor sizes were estimated using the Formula: tumor size=(Length×width×width)/2. The data shown are the mean±sd.
BaF3/KR(G810C) cells were tested free of 20 mouse pathogens (IDEXX, Columbia, MO) and mycoplasma. Cells (1×10^7 cells/0.1 ml/each) were inoculated subcutaneously into the right flank of approximately 5-week old female SHO mice (Charles River, Wilmington, MA). After tumor formation, mice (6 mice/group) were treated with vehicle or test compounds at the indicated doses by oral gavage once a day. Tumor size and animal body weight were measured as described. Statistical analysis was performed using the unpaired Mann-Whitney test.

In the next series the target is T8, KIF5B-RET G810R (Homo sapiens, UniProt P07949, G810R).
T8 construct: KIF5B (fusion partner); expressed in transfected cells; host or cells: BaF3; the other entry of the earlier key: KIF5B (P33176, Kinesin-1 heavy chain)
T8 sequence (P07949 713-1063 G810R limits assumed): T1 sequence (P07949 713-1063 V804M limits assumed) with M92V, G98R
Nature of the series: Cell viability assay (CellTiter-Glo) in BaF3 cells expressing KIF5B-RET G810R. Format: cell-based. The settings on record: B/KR mutant cell line G810R; read-out: IC50 of RET mutants, G810R.
Excerpt: as §1

SMILES strings stand for the structures. Substitutions are numbered along the chain they refer to. ≈ marks a conversion by molar mass, not a printed value.

Broadly, the IC50 is the concentration that inhibits the measured activity by half. What is called solubility is the concentration that dissolves in the medium under given conditions. The low end stands for little dissolved substance, the high end for much dissolved substance. Take `CN1CCN(Cc2ccc(NC(=O)c3cncc(C#Cc4cnc(N)nc4)c3)cc2C(F)(F)F)CC1` [Example 2, 5-((2-Aminopyrimidin-5-yl)ethynyl)-N-(4-((4-methylpiperazin-1-yl)methyl)-3-(trifluoromethyl)phenyl)nicotinamide]: the IC50 was determined as 20.3 ± 1.09 nM at KIF5B-RET V804M; 8.34 ± 0.36 nM on KIF5B-RET G810V; 12.2 ± 0.63 nM at KIF5B-RET G810C; 1.47 ± 0.05 nM at KIF5B-RET G810D; 3.49 ± 0.16 nM on KIF5B-RET WT; 8.02 ± 0.21 nM at KIF5B-RET G810S. Besides, the results for the IC50 at hERG, at KIF5B-RET G810A and on KIF5B-RET G810R were 23000 nM, 3.89 ± 0.07 nM and 46.8 ± 1.11 nM, respectively. Moreover, the concentration in solution in the series “Solubility at pH 6.8” (solubility) came to 117 µM (≈ 58 µg/mL). Moreover, the protein-bound in [1] is given as 94%. In addition, in the series on B/KR(G810C) CDX tumors (25 mg/Kg), the “effect on B/KR(G810C) CDX tumors” value is “tumor regression”.
Consider `CN1CCN(Cc2ccc(NC(=O)c3cncc(C#Cc4cnc5[nH]ncc5c4)c3)cc2C(F)(F)F)CC1` [Example 1, 5-((1H-Pyrazolo[3,4-b]pyridin-5-yl)ethynyl)-N-(4-((4-methylpiperazin-1-yl)methyl)-3-(trifluoromethyl)phenyl)nicotinamide], for which the IC50 on KIF5B-RET V804M is 14.1 ± 0.54 nM; at KIF5B-RET G810V it was 4.1 ± 0.3 nM; on KIF5B-RET G810C it was 11.4 ± 0.32 nM; at KIF5B-RET G810D, 5.21 ± 0.36 nM; at KIF5B-RET WT, 1.7 ± 0.08 nM; on KIF5B-RET G810S it was 7.76 ± 0.33 nM. Further, the IC50 on KIF5B-RET G810A came to 1.56 ± 0.07 nM; on KIF5B-RET G810R, 24.5 ± 0.79 nM.
The molecule `CN1CCN(Cc2ccc(NC(=O)c3cncc(C#Cc4cnc(N)c5ncccc45)c3)cc2C(F)(F)F)CC1` [HSN608, reference compound] came in with a solubility in “Solubility at pH 6.8” of 0.07 µM (≈ 0.0382 µg/mL). Besides, in series [1], the protein-bound is 99%. In addition, in the series with B/KR(G810C) CDX tumors (50 mg/Kg), the “effect on B/KR(G810C) CDX tumors” value was “tumor regression”.
